How the values were obtained:
[1] = target: T1, Kdr (Mus musculus, UniProt P35918); test: Kinase inhibitor profiling, autophosphorylation; assay type: biochemical
T1 construct: specificity data for proteins generated from a library of eighteen full-length clones; biotin on random lysines (biotin-Lys-tRNA); host or cells: rabbit reticulocyte lysate, coupled transcription/translation (TnT, Promega)
Procedure: Proteins were produced from DNA plasmids of Mock Luciferase, Promega, tyrosine kinase clone Spleen Tyrosine kinase (SYK, IMAGE ID# 3870426) and Eph receptor-A7 (EphA7, IMAGE ID# 3991628) (Incyte Genomics, CA) and immobilized on streptavidin or avidin coated NPT-IPR plates as described in the Example 7. To promote autophosphorylation in these immobilized and purified proteins, Mn++ ions were added in a 50 μl reaction containing 5 mM MgCl2, 5 mM MnCl2, 100 μM ATP, 25 mM Tris-HCl buffer pH 7.4, 0.05 mM Na3VO4, 0.004% TritonX-100, 2 mM DTT and EDTA-free protease inhibitor (Roche Molecular Biochemicals). This mixture was incubated with shaking at room temperature overnight to allow autophosphorylation. Following this incubation, wells were washed 2 times with TT-buffer and 2 times with water. Following this step, 50 ng Sulfo-TAG labeled anti-phosphotyrosine in buffer containing 25 mM Tris-HCl buffer pH 7.4, 5 mM MgCl2, 0.05 mM Na3VO4, 0.004% TritonX-100, 2 mM DTT and 0.05% IgG in a final volume of 50 μl was added followed by incubation at room temperature for 45 min. The unbound reagents were removed by one time washing with water, and the TAG label was detected in presence of 150 μl IPR assay buffer (0.4 mM Gly—Gly buffer, pH 7.8, 1 mM EDTA, 0.1 M TPA). The ECL signals were measured using an imaging plate reader.
The unbound components of the translation reaction (including any endogenous kinases) were removed by 3 washes with TT-buffer (25 mM Tris-HCl buffer pH 7.4 and 0.004% Triton), two five minutes washes with high-salt wash buffer (25 mM Tris-HCl buffer pH 7.4, 0.004% Triton, 1M NaCl and 5 mM DTT) and 3 washes with TT-buffer. […] The mixture was incubated at room temperature for 10 mm before starting the kinase reaction by adding 25 μl of 200 μM ATP in buffer A. This mixture was incubated with intermittent shaking at room temperature for 2 hours to overnight to allow (a) phosphorylation of the pEY substrate and (b) autophosphorylation of the immobilized kinases. Autophosphorylation and phosphorylation of the pEY was measured as described in Examples 7 and 8.
The ECL signal in control wells produced by tyrosine kinases was compared to the wells containing inhibitor compounds.

[2] = target: T2, BTK (Homo sapiens, UniProt Q06187); test: Kinase inhibitor profiling, autophosphorylation; assay type: biochemical
T2 construct: specificity data for proteins generated from a library of eighteen full-length clones; host or cells: rabbit reticulocyte lysate, TnT coupled in vitro transcription/translation (cell-free)
T2 sequence (Q06187 whole entry): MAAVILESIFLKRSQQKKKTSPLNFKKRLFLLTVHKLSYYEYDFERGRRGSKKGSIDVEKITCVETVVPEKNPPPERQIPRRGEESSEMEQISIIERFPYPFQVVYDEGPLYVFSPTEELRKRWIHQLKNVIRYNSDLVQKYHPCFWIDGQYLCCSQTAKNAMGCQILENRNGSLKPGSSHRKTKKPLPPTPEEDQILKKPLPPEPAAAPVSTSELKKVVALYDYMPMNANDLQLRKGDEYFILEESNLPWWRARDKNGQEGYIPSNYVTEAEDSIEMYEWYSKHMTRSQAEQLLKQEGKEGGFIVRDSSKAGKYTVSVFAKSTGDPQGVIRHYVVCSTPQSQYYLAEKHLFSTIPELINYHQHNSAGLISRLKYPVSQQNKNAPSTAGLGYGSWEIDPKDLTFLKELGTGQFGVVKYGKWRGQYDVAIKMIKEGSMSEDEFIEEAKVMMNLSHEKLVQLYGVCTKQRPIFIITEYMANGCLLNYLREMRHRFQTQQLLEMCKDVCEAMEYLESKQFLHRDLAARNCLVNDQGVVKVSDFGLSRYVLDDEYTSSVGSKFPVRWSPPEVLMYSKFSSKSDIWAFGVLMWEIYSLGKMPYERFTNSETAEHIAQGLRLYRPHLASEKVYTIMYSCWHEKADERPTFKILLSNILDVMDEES

T1 sequence (P35918 20-1345): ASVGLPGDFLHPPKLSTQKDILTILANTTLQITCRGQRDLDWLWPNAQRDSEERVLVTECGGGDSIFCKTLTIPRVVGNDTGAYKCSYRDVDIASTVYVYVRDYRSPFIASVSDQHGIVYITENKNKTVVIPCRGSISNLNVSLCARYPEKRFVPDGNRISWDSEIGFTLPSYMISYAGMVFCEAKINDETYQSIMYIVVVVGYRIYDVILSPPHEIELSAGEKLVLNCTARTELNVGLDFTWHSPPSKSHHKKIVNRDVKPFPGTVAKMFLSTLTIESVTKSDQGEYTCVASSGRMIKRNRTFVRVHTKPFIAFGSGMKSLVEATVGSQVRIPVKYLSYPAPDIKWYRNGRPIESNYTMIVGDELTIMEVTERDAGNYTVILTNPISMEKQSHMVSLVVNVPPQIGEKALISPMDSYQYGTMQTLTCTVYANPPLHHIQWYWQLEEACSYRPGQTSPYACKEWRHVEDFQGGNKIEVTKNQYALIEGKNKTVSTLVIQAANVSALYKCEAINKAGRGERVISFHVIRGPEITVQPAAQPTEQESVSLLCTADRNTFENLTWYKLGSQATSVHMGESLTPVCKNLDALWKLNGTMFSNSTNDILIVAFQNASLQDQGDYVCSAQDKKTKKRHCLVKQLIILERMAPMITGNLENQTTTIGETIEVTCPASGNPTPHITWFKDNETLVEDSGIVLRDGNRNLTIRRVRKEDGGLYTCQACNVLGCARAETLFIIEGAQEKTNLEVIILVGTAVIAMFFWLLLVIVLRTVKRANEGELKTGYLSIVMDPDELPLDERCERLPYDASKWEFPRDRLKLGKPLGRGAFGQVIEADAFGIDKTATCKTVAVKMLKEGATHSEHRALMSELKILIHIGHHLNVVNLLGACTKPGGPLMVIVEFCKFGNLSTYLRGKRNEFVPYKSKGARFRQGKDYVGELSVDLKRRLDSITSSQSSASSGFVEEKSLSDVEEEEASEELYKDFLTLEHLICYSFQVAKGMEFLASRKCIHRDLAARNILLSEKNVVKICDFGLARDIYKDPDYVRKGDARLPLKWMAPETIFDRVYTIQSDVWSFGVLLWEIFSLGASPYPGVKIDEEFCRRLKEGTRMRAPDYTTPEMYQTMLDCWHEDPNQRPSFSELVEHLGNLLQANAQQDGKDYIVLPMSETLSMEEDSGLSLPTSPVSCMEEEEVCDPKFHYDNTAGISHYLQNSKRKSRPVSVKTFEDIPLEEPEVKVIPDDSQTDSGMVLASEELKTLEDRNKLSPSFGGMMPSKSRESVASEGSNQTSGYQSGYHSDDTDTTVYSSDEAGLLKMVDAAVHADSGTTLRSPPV

Row | Molecule | Inhibition specificity towards Autophosphorylation at 10X IC50, Kdr [1] | Inhibition specificity towards Autophosphorylation at 10X IC50, BTK [2]
1 | COC(=O)c1ccc(NCc2cc(O)ccc2O)cc1 [AG-957] | L (low inhibition (“L”=between 50–75% of the activity remaining)) | L (low inhibition (“L”=between 50–75% of the activity remaining))
2 | CC(C)(C)c1cc(C=C(C#N)C#N)cc(Br)c1O [AG-1024] | – | L (low inhibition (“L”=between 50–75% of the activity remaining))
3 | Cc1cc2ncc(-c3ccc(O)c(O)c3)nc2cc1C [AG-1433] | H (high inhibition (“H”=less than 25% of the activity remaining)) | H (high inhibition (“H”=less than 25% of the activity remaining))
4 | COc1c(C=O)c(O)cc2c1C(=O)c1ccccc1C2=O [Damnacanthal] | H (high inhibition (“H”=less than 25% of the activity remaining)) | H (high inhibition (“H”=less than 25% of the activity remaining))
5 | Cc1ccc(-c2nn(C(C)(C)C)c3ncnc(N)c23)cc1 [PP1] | L (low inhibition (“L”=between 50–75% of the activity remaining)) | –
6 | COc1cc2ncnc(Nc3ccc(Cl)cc3F)c2cc1OC [VEGFR inhibitor] | M (medium inhibition (“M”=between 25 to 50% of the activity remaining)) | L (low inhibition (“L”=between 50–75% of the activity remaining))
7 | COc1cc2ncnc(Nc3ccc(O)cc3)c2cc1OC [WHI-P131] | M (medium inhibition (“M”=between 25 to 50% of the activity remaining)) | –
8 | Erbstatin analog | L (low inhibition (“L”=between 50–75% of the activity remaining)) | L (low inhibition (“L”=between 50–75% of the activity remaining))

Source: patent publication US7063946B2, “Methods, reagents, kits and apparatus for protein function analysis” (Meso Scale Technologies, LLC., priority 2001, dated 2006)
